Assay results taken from the supplement of paper PMC10307832.

Tests used:
Test in all cases: relative viability (nuclei count vs DMSO), 5 days (fraction); higher = more cells survive
[1] = compound: C=C(c1ccc(C(=O)O)cc1)c1cc2c(cc1C)C(C)(C)CCC2(C)C [Bexarotene] + Nc1nc2[nH]cc(CCc3ccc(C(=O)N[C@@H](CCC(=O)O)C(=O)O)cc3)c2c(=O)[nH]1 [Pemetrexed] (partner 0.2 µM)
Method in brief: (§1)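 Medians of duplicate plates are given as relative viability. That measure is the nuclei count in treated wells divided by the count in vehicle wells. Counts were taken on 4× images of lung cancer cell lines in 1536-well plates, 5 days after pin-tool dosing the day after seeding with one drug alone or a fixed anchor-drug dose plus five library-drug doses (not always all listed) in √10 steps.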

[2] = compound: C=C(c1ccc(C(=O)O)cc1)c1cc2c(cc1C)C(C)(C)CCC2(C)C [Bexarotene] + O=C(c1cc(Cc2n[nH]c(=O)c3ccccc23)ccc1F)N1CCN(C(=O)C2CC2)CC1 [Olaparib] (partner 8 µM)
Method in brief: as §1

[3] = compound: C=C(c1ccc(C(=O)O)cc1)c1cc2c(cc1C)C(C)(C)CCC2(C)C [Bexarotene] + Cc1nc(NC(=O)N2CCC[C@H]2C(N)=O)sc1-c1ccnc(C(C)(C)C(F)(F)F)c1 [Alpelisib] (partner 2 µM)
Method in brief: as §1

[4] = compound: C=C(c1ccc(C(=O)O)cc1)c1cc2c(cc1C)C(C)(C)CCC2(C)C [Bexarotene] + CC(=O)c1c(C)c2cnc(Nc3ccc(N4CCNCC4)cn3)nc2n(C2CCCC2)c1=O [Palbociclib] (partner 0.5 µM)
Method in brief: as §1

Row | Cell Line | relative viability ([1]; first compound 0.08 µM) | relative viability ([1]; first compound 0.253 µM) | relative viability ([1]; first compound 0.8 µM) | relative viability ([1]; first compound 2.53 µM) | relative viability ([1]; first compound 8 µM) | relative viability ([2]; first compound 0.08 µM) | relative viability ([2]; first compound 0.253 µM) | relative viability ([2]; first compound 0.8 µM) | relative viability ([2]; first compound 2.53 µM) | relative viability ([2]; first compound 8 µM) | relative viability ([3]; first compound 0.08 µM) | relative viability ([3]; first compound 0.253 µM) | relative viability ([3]; first compound 0.8 µM) | relative viability ([3]; first compound 2.53 µM) | relative viability ([3]; first compound 8 µM) | relative viability ([4]; first compound 0.08 µM) | relative viability ([4]; first compound 0.253 µM) | relative viability ([4]; first compound 0.8 µM) | relative viability ([4]; first compound 2.53 µM) | relative viability ([4]; first compound 8 µM)
1 | HCC-366 | 0.203 | 0.14 | 0.2 | 0.141 | 0.17 | 0.346 | 0.494 | 0.381 | 0.388 | 0.369 | 0.529 | 0.408 | 0.411 | 0.489 | 0.463 | 0.424 | 0.42 | 0.365 | 0.416 | 0.4
2 | HCC-827 | 0.285 | 0.271 | 0.263 | 0.317 | 0.245 | 0.714 | 0.637 | 0.763 | 0.666 | 0.625 | 1.05 | 0.844 | 0.969 | 1.04 | 0.917 | 0.508 | 0.497 | 0.466 | 0.482 | 0.497
3 | HOP-62 | 0.332 | 0.297 | 0.336 | 0.314 | 0.361 | 0.452 | 0.711 | 0.56 | 0.43 | 0.371 | 1.35 | 1.4 | 1.03 | 1.12 | 0.917 | 0.502 | 0.516 | 0.451 | 0.409 | 0.491
4 | IA-LM |  |  |  |  |  | 0.752 | 0.707 | 0.675 | 0.576 | 0.63 | 0.771 | 0.702 | 0.67 | 0.581 | 0.669 |  |  |  |  | 
5 | LC-2-ad | 0.294 | 0.279 | 0.28 | 0.247 | 0.302 | 0.711 | 0.693 | 0.663 | 0.541 | 0.661 | 0.872 | 1.15 | 0.762 | 0.96 | 0.861 | 0.427 | 0.5 | 0.473 | 0.434 | 0.46
6 | LCLC-97TM1 | 0.193 | 0.159 | 0.172 | 0.202 | 0.168 | 0.383 | 0.421 | 0.411 | 0.31 | 0.269 | 0.333 | 0.285 | 0.274 | 0.264 | 0.263 | 0.211 | 0.245 | 0.168 | 0.177 | 0.185
7 | LCLC-103H | 0.462 | 0.453 | 0.462 | 0.436 | 0.472 | 0.827 | 0.896 | 0.699 | 0.779 | 0.825 | 1.03 | 0.968 | 1.04 | 1.09 | 0.993 | 0.495 | 0.544 | 0.453 | 0.476 | 0.475
8 | LK-2 | 0.353 | 0.292 | 0.285 | 0.275 | 0.238 | 0.97 | 0.632 | 0.981 | 0.652 | 0.841 | 1.15 | 1.12 | 1.12 | 1.25 | 1.15 | 0.656 | 0.825 | 0.702 | 0.695 | 0.669
9 | LOU-NH91 | 0.449 | 0.43 | 0.399 | 0.399 | 0.386 | 0.905 | 0.932 | 0.875 | 0.841 | 0.823 | 0.633 | 0.653 | 0.601 | 0.632 | 0.616 | 0.544 | 0.507 | 0.485 | 0.528 | 0.551
10 | LU99A | 0.19 | 0.194 | 0.206 | 0.189 | 0.171 | 0.276 | 0.306 | 0.277 | 0.311 | 0.273 | 0.592 | 0.57 | 0.535 | 0.475 | 0.61 | 0.449 | 0.395 | 0.355 | 0.468 | 0.371
11 | NCI-H596 | 0.47 | 0.482 | 0.451 | 0.456 | 0.736 | 0.715 | 0.679 | 0.85 | 0.672 | 0.817 | 0.581 | 0.6 | 0.479 | 0.668 | 0.565 |  |  |  |  | 
12 | NCI-H727 |  |  |  |  |  | 0.778 | 0.694 | 0.804 | 0.691 | 0.807 | 0.808 | 0.522 | 0.503 | 0.58 | 0.701 | 0.683 | 0.578 | 0.595 | 0.696 | 0.711
13 | NCI-H1299 |  |  |  |  |  | 0.951 | 0.967 | 0.917 | 0.882 | 0.895 | 1.05 | 1.13 | 1.12 | 1.05 | 1.05 |  |  |  |  | 
14 | NCI-H1563 | 0.753 | 0.632 | 0.745 | 0.682 | 0.85 |  |  |  |  |  | 0.947 | 0.804 | 0.955 | 0.973 | 0.839 |  |  |  |  | 
15 | NCI-H1648 | 0.897 | 0.738 | 0.676 | 0.585 | 0.619 | 0.927 | 1.34 | 0.712 | 0.766 | 0.685 |  |  |  |  |  | 0.222 | 0.313 | 0.229 | 0.235 | 0.23
16 | NCI-H1650 | 0.353 | 0.371 | 0.352 | 0.379 | 0.432 | 0.769 | 0.674 | 0.797 | 0.697 | 0.7 |  |  |  |  |  | 0.355 | 0.285 | 0.279 | 0.271 | 0.282
17 | NCI-H1703 |  |  |  |  |  | 0.532 | 0.494 | 0.483 | 0.386 | 0.377 | 0.423 | 0.364 | 0.402 | 0.242 | 0.324 |  |  |  |  | 
18 | NCI-H2342 | 0.827 | 0.739 | 0.747 | 0.825 | 0.797 | 0.425 | 0.52 | 0.481 | 0.407 | 0.583 |  |  |  |  |  | 0.522 | 0.556 | 0.525 | 0.54 | 0.608
19 | SW 900 | 0.509 | 0.465 | 0.456 | 0.454 | 0.477 | 0.936 | 0.733 | 1.11 | 0.866 | 0.863 |  |  |  |  |  | 0.553 | 0.41 | 0.52 | 0.423 | 0.411
